Test results taken from ChEMBL document CHEMBL3763102, “4-Aryl-3-arylsulfonyl-quinolines as negative allosteric modulators of metabotropic GluR5 receptors: From HTS hit to development candidate” (Bioorg Med Chem Lett, 2016).
Activity calls are given as the source filed them. The calls are words filed in the database; no cut-off is given here.

What was measured:
Liver microsome [1] = assay: Intrinsic clearance in Wistar rat liver microsomes at 2.5 uM; assay type: ADME
Liver microsome [2] = assay: Intrinsic clearance in human liver microsomes at 2.5 uM; assay type: ADME
[3] = target: T1, Metabotropic glutamate receptor 5 (Rattus norvegicus, UniProt P31424); assay: Displacement of [3H]MPEP from rat mGlu5 receptor expressed in rat cerebrocortical membrane measured after 1 hr; assay type: cell membranes
[4] = target: T2, Metabotropic glutamate receptor 5 (Homo sapiens, UniProt P41594); assay: Displacement of [3H]MPEP from recombinant human mGluR5a expressed in A18 cells measured after 1 hr; assay type: cell-based
[5] = target: T1, Metabotropic glutamate receptor 5; assay: Displacement of [3H]-MPEP from rat mGlu5 receptor expressed in HEK293 cell membranes after 1 hr by scintillation counting analysis
[6] = target: T2, Metabotropic glutamate receptor 5; assay: Displacement of [3H]-MPEP from human mGlu5 receptor expressed in HEK293 cell membranes after 1 hr by scintillation counting analysis
Rattus norvegicus [7] = assay: Anxiolytic activity in water deprived rat assessed as increase in number of accepted shocks at 10 mg/kg, po after 1 hr by Vogel punished drinking test; assay type: functional, organism-based
Homo sapiens [8] = organism: Homo sapiens; assay: Toxicity in human at 1 to 120 mg by single ascending dose study; assay type: organism-based; conditions: in vivo
Homo sapiens [9] = assay: Toxicity in human assessed as suicidal ideation and behavior administered as bid for 10 to 14 days by multiple ascending dose study; assay type: organism-based; conditions: in vivo
Rattus norvegicus [10] = assay: Anxiolytic activity in water deprived rat assessed as increase in number of accepted shocks at 1 mg/kg, po after 1 hr by Vogel punished drinking test; assay type: functional, organism-based
Homo sapiens [11] = assay: Toxicity in human assessed as change in ECG administered as bid for 10 to 14 days by multiple ascending dose study; assay type: organism-based; conditions: in vivo
Homo sapiens [12] = assay: Toxicity in human assessed as change in ECG administered as qd for 10 to 14 days by multiple ascending dose study; assay type: organism-based; conditions: in vivo
Homo sapiens [13] = assay: Toxicity in human assessed as suicidal ideation and behavior administered as qd for 10 to 14 days by multiple ascending dose study; assay type: organism-based; conditions: in vivo

T1 sequence (P31424 whole entry): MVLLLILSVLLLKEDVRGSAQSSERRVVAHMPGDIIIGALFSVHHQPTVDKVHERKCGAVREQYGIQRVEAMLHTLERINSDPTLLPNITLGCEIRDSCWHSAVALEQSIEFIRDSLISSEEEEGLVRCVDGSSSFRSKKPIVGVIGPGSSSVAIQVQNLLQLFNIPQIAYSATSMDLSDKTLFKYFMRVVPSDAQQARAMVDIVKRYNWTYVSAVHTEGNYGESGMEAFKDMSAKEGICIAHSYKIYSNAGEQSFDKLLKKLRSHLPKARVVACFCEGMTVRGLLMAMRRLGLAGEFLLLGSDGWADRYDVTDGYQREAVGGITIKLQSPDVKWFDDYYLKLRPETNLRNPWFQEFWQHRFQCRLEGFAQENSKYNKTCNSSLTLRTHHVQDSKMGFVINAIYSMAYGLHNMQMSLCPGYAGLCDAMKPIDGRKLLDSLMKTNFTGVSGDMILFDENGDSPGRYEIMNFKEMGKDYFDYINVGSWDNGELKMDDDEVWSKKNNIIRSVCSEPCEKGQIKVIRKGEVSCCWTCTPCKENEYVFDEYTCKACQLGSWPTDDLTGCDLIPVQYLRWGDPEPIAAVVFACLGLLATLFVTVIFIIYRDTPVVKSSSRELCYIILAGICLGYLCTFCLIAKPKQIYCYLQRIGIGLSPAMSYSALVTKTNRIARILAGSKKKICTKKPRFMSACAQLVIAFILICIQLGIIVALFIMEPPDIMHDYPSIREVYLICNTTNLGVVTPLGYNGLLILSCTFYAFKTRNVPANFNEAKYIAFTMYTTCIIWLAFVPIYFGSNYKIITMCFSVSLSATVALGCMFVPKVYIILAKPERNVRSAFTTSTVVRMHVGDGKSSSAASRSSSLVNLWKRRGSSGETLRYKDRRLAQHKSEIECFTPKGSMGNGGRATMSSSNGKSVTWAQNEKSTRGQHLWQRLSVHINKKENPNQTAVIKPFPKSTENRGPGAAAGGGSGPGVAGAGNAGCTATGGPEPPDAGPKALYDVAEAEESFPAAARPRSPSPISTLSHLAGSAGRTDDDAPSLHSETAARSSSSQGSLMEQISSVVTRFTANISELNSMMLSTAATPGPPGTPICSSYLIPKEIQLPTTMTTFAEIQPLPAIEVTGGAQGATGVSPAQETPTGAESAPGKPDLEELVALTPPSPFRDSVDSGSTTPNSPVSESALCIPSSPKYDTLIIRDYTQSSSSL
T2 sequence (P41594 whole entry): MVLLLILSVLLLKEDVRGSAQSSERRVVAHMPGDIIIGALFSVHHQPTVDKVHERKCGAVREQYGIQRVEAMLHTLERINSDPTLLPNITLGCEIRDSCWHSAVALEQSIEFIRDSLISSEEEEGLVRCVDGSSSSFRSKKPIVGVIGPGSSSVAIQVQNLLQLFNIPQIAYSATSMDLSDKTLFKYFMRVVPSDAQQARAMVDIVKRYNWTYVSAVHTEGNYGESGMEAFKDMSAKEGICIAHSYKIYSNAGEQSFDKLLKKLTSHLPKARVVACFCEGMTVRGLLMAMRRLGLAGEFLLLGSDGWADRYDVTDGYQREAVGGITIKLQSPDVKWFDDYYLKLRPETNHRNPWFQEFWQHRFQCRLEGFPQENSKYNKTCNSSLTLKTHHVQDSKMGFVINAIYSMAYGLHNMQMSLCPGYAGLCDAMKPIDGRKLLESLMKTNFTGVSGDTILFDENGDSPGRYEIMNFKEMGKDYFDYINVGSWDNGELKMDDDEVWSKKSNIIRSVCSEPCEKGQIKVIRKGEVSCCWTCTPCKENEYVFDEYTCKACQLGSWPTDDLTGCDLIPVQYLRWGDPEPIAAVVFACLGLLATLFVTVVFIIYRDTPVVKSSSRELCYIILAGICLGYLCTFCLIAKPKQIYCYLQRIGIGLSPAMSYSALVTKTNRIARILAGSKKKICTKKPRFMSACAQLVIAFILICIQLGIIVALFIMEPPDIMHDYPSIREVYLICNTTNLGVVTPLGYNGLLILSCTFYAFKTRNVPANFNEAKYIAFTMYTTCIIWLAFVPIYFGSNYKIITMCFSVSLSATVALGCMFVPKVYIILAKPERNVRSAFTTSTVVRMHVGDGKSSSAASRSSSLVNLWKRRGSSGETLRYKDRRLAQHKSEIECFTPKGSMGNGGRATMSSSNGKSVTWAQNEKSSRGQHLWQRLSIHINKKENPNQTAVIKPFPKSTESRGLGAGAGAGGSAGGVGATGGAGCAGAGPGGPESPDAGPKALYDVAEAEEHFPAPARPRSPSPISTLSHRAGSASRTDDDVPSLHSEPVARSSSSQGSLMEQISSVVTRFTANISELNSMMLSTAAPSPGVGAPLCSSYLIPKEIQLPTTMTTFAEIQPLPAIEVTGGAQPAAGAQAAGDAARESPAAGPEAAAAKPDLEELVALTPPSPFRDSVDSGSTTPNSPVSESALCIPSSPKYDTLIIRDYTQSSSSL

Row | SMILES | CLH (Liver microsome [1]) [mL/min/g] | CLH (Liver microsome [2]) [mL/min/g] | Ki [3] [µM] | other results
1 | Cc1ccc(S(=O)(=O)c2cnc3ccccc3c2N2CCOCC2)cc1C | 18 | 3.37 | 0.068 | Ki [4]: 0.052 µM
2 | CN1CC(=O)N=C1NC(=O)Nc1cccc(Cl)c1 [FENOBAM ANHYDROUS] | – | – | – | IC50 [5]: 0.051 µM; IC50 [6]: 0.051 µM
3 | Cc1ccc(S(=O)(=O)c2sc3ncccc3c2-c2ccc(Cl)cc2)cc1 | 13.8 | 2.31 | 0.015 | –
4 | Cc1nc(C#Cc2cccnc2)cs1 | – | – | – | Activity (Rattus norvegicus [7]): Active
5 | Cc1ccc(S(=O)(=O)c2cnc3ccccc3c2N2CCC(C)CC2)cc1 | 17.4 | 3.54 | 0.022 | –

Second part, led by results:

Row | CLH (Liver microsome [1]) [mL/min/g] | CLH (Liver microsome [2]) [mL/min/g] | Ki [3] [µM] | SMILES | other results
6 | 0.88 | 0.5 | 0.0052 | O=S(=O)(c1ccc(Cl)c(F)c1)c1cnc2cc(F)ccc2c1-c1ccc(F)cc1 | –
7 | 0.19 | 0.28 | 0.0084 | O=S(=O)(c1ccc(F)c(F)c1)c1cnc2c(F)cccc2c1-c1ccc(Cl)cc1 | –
8 | 17.5 | 2.12 | 0.0095 | Cc1ccc(S(=O)(=O)c2cnc3ccccc3c2-c2ccc(Cl)cc2)cc1 | Ki [4]: 0.017 µM
9 | 0.25 | 0.31 | 0.0053 | N#Cc1cccc(S(=O)(=O)c2cnc3cc(F)ccc3c2-c2ccc(Cl)cc2)c1 | Activity (Homo sapiens [8]): Non-toxic; Activity (Homo sapiens [9]): Non-toxic; Activity (Rattus norvegicus [10]): Active; Activity (Homo sapiens [11]): Non-toxic; Activity (Homo sapiens [12]): Non-toxic; Activity (Homo sapiens [13]): Non-toxic
10 | 1.03 | 0.2 | 0.0115 | O=S(=O)(c1cc(Cl)cc(Cl)c1)c1cnc2cc(F)ccc2c1-c1ccc(F)cc1 | –
